These results are taken from patent US11752165B2, “Basic chemotherapeutic intratumour injection formulation” (US NANO FOOD & DRUG, INC., priority 2020, dated 2023).

By LD50 is commonly meant the dose at which mortality reaches 50%.

The nature of one series: Solubility in water. The following applies: for Solubility in water (in words): detailed description; for Solubility in H2O: Table 2, yes/no.
Series [1] is described as follows: Stability of the basic (free base) chemical. To be noted: detailed description.
For series [2] the following is noted: cited from earlier work; for Solubility in water (in words): background statement.
The conditions of series [3]: background statement; cited from earlier work.
The nature of series [4]: Solubility in oil, ethanol and other organic liquids. The following applies: for Solubility in organic liquids (in words): detailed description; for Solubility in ethanol / Solubility in oil: Table 2, yes/no.
For series [5] the following is noted: background statement, cited from earlier work.
The conditions of series [6]: 5 mg/mL aqueous solution; cited from earlier work.
The format of series [7] is physicochemical.
For series [8] the following is noted: cited from earlier work.
Another series relates to mice. To be noted: mouse, in vivo, ip; cited from earlier work.
The mark [9] stands for this setting: serum, rapid intravenous injection, patients with cancer.

Values after ≈ are worked out from the molar mass of the structure shown. “Also recorded” adds a separate entry of the source. Where a name gives a salt, the structure may show the parent alone. Read-outs that look alike come from different tables or passages of the source.

As for `COc1cccc2c1C(=O)c1c(O)c3c(c(O)c1C2=O)C[C@@](O)(C(C)=O)C[C@@H]3O[C@H]1C[C@H](N)[C@H](O)[C@H](C)O1` [Daunorubicin base, daunorubicin], the “Solubility in water (in words)” value (in “Solubility in water”; in [2]) was “insoluble in water” in each case. Moreover, the “Stability of the base form (in words)” value in series [1] is reported as “not stable in base form”. Further, the “Stability of the basic chemical (in words)” value in series [3] is reported as “unstable”. Besides, the “Solubility in organic liquids (in words)” value was “slightly soluble in an organic liquid such as oleic acid, PEG and ethanol” in [4]; “slightly soluble in an organic liquid” in series [5].

In the case of `COc1cccc2c1C(=O)c1c(O)c3c(c(O)c1C2=O)C[C@@](O)(C(C)=O)C[C@@H]3O[C@H]1C[C@H](N)[C@H](O)[C@H](C)O1` [Daunorubicin hydrochloride], in [2] (hydrochloride), the “Solubility in water (in words)” value was “soluble in water”.

In the case of `COc1cccc2c1C(=O)c1c(O)c3c(c(O)c1C2=O)C[C@@](O)(C(=O)CO)C[C@@H]3O[C@H]1C[C@H](N)[C@H](O)[C@H](C)O1` [Doxorubicin Hydrochloride], the “Solubility in water (in words)” value in series [2] (hydrochloride) was “soluble in water”. Further, the “pH of aqueous solution” value in series [6] is 4.0-5.5.

In the case of `COc1cccc2c1C(=O)c1c(O)c3c(c(O)c1C2=O)C[C@@](O)(C(=O)CO)C[C@@H]3O[C@H]1C[C@H](N)[C@H](O)[C@H](C)O1` [Doxorubicin base, doxorubicin], the pH in water in [7] (10 mg in 5 ml of water) was 7.9. In addition, the “Solubility in water (in words)” value in [2] is on record as “insoluble in water”. Besides, the “Stability of the basic chemical (in words)” value in series [3] is on record as “unstable”. Moreover, the “Solubility in organic liquids (in words)” value in series [4] was “slightly soluble alcohols; also recorded: moderately soluble in anhydrous methanol”; in series [5], “slightly soluble in an organic liquid”.

For `COc1cccc2c1C(=O)c1c(O)c3c(c(O)c1C2=O)C[C@@](O)(C(=O)CO)C[C@@H]3O[C@H]1C[C@H](N)[C@@H](O)[C@H](C)O1` [Epirubicin hydrochloride], the “Solubility in water (in words)” value in [2] (hydrochloride) is given as “soluble in water”.

Take `O=C1c2c(O)ccc(O)c2C(=O)c2c(NCCNCCO)ccc(NCCNCCO)c21` [Mitoxantrone base, mitoxantrone]: the results for the “Solubility in water (in words)” value (in the series “Solubility in water”; in [2]) were “sparingly soluble in water” and “insoluble in water”, respectively. Besides, the “Stability of the base form (in words)” value in series [1] is reported as “the basic form is stable”. In [7] (25 mg in 10 ml water), this compound registered a pH in water of 9.42. For the same compound, the “Solubility in organic liquids (in words)” value in series [4] was “slightly soluble in methanol; also recorded: practically insoluble in acetonitrile chloroform and acetone”; in [5], “slightly soluble in an organic liquid”.

Regarding `CC[C@]1(O)C[C@@H]2CN(CCc3c([nH]c4ccccc34)[C@@](C(=O)OC)(c3cc4c(cc3OC)N(C)[C@H]3[C@@](O)(C(=O)OC)[C@H](OC(C)=O)[C@]5(CC)C=CCN6CC[C@]43[C@@H]65)C2)C1` [Vinblastine sulphate], the “Solubility in H2O” value in the series “Solubility in water” (listed as Vinblastine H2SO4) is listed as “yes”. The “Solubility in water (in words)” value in the series “Solubility in water” (listed as Vinblastine sulfate) is “soluble in water”. Moreover, in series [8] (following IV administration), the “Crossing of the blood brain barrier (in words)” value was “crosses the blood brain barrier poorly”. Moreover, the “Solubility in water (in words)” value in [2] is “One part is soluble in 10 parts of water”. In addition, in [4] (listed as Vinblastine H2SO4), the Solubility in ethanol entry was “no” and the Solubility in oil entry is “no”.

As for `CC[C@]1(O)C[C@@H]2CN(CCc3c([nH]c4ccccc34)[C@@](C(=O)OC)(c3cc4c(cc3OC)N(C)[C@H]3[C@@](O)(C(=O)OC)[C@H](OC(C)=O)[C@]5(CC)C=CCN6CC[C@]43[C@@H]65)C2)C1` [Vinblastine], in the series “Solubility in water”, the “Solubility in H2O” value is recorded as “no” and the “Solubility in water (in words)” value is reported as “practically insoluble in water”. Besides, the “Solubility in water (in words)” value in “Solubility in water” (listed as vinblastine base) is given as “not soluble in water”. In series [8] (setting [9]), the Initial half-life is 3.7 min, the Middle half-life is 1.6 h and the Terminal half-life is 24.8 h. For the same compound, the “Stability of the base form (in words)” value in series [1] is given as “unstable at room temperature”. The “Solubility in water (in words)” value in series [2] (listed as vinblastine) is listed as “insoluble in water”. In series [4], the Solubility in ethanol result is reported as “yes”; the Solubility in oil entry is “yes”; the “Solubility in organic liquids (in words)” value is recorded as “soluble in alcohol, acetone, chloroform, ethyl acetate”. Besides, the “Solubility in organic liquids (in words)” value in series [5] (listed as vinblastine) is reported as “slightly soluble in an organic liquid”.

Regarding `CC[C@]1(O)C[C@H]2CN(CCc3c([nH]c4ccccc34)[C@@](C(=O)OC)(c3cc4c(cc3OC)N(C=O)[C@H]3[C@@](O)(C(=O)OC)[C@H](OC(C)=O)[C@]5(CC)C=CCN6CC[C@]43[C@@H]65)C2)C1` [Vincristine sulfate], in the series “Solubility in water” (listed as Vincristine H2SO4), the “Solubility in H2O” value is on record as “yes”. Further, the “Solubility in water (in words)” value in series [2] is recorded as “freely soluble in water”. Besides, in series [4] (listed as Vincristine H2SO4), the Solubility in ethanol result is recorded as “no” and the Solubility in oil entry is reported as “no”.

With `CC[C@]1(O)C[C@H]2CN(CCc3c([nH]c4ccccc34)[C@@](C(=O)OC)(c3cc4c(cc3OC)N(C=O)[C@H]3[C@@](O)(C(=O)OC)[C@H](OC(C)=O)[C@]5(CC)C=CCN6CC[C@]43[C@@H]65)C2)C1` [Vincristine], the “Solubility in H2O” value in the series “Solubility in water” is listed as “no”. In addition, the “Solubility in water (in words)” value was “not soluble in water” in “Solubility in water”, “practically insoluble in water” in series [2] and “insoluble in water” in series [2] (listed as vincristine). The Solubility in water in [2] (25° C.) was 2.27 µg/mL (≈ 2.75 µM). The “Stability of the basic chemical (in words)” value in [3] is “unstable”. Besides, in series [4], the Solubility in ethanol entry is on record as “yes”. The Solubility in oil entry in [4] is reported as “yes”. Moreover, the “Solubility in organic liquids (in words)” value in series [5] was “soluble in alcohol, acetone, and chloroform”; in [5] (listed as vincristine) it was “slightly soluble in an organic liquid”. Besides, the LD50 with mice is 5.2 mg/kg.

On to `CC[C@]1(O)C[C@@H]2CN(CCc3c([nH]c4ccccc34)[C@@](C(=O)OC)(c3cc4c(cc3OC)N(C)[C@H]3[C@@](O)(C(N)=O)[C@H](O)[C@]5(CC)C=CCN6CC[C@]43[C@@H]65)C2)C1` [Vindesine], for which, in “Solubility in water”, the “Solubility in H2O” value is reported as “no” and the “Solubility in water (in words)” value is “practically insoluble in water”. For the same compound, the “Stability of the base form (in words)” value in series [1] was “not stable”. In series [2], the “Solubility in water (in words)” value is on record as “insoluble in water”. In addition, the “Stability of the basic chemical (in words)” value in series [3] is recorded as “unstable”. Also, in [4], the Solubility in ethanol entry is “yes”; the Solubility in oil entry is recorded as “yes”; the “Solubility in organic liquids (in words)” value is “soluble in alcohol, acetone”. Moreover, in series [5], the “Solubility in organic liquids (in words)” value is given as “slightly soluble in an organic liquid”.

As to `COc1cccc2c1C(=O)c1c(O)c3c(c(O)c1C2=O)C[C@@](O)(C(=O)CO)C[C@@H]3O[C@H]1C[C@H](N)[C@@H](O)[C@H](C)O1` [epirubicin base, epirubicin], in “Solubility in water”, the Solubility in water was found to be 0.093 mg per ml and the “Solubility in water (in words)” value was “insoluble in water”. Besides, the “Solubility in water (in words)” value in [2] is reported as “insoluble in water”. Moreover, the “Stability of the basic chemical (in words)” value in series [3] is given as “unstable”. Further, the “Solubility in organic liquids (in words)” value in series [5] is reported as “slightly soluble in an organic liquid”.

For the compound `C=C1C[C@@H]2CC[C@@]34C[C@H]5O[C@H]6[C@@H](O3)[C@H]3O[C@H](CC[C@@H]3O[C@H]6[C@H]5O4)CC(=O)C[C@@H]3[C@@H](OC)[C@@H](C[C@H](O)CN)O[C@H]3C[C@H]3O[C@@H](CC[C@@H]1O2)C[C@@H](C)C3=C` [eribulin], the “Solubility in water (in words)” value in [2] was “insoluble in water”. In addition, the “Stability of the basic chemical (in words)” value in series [3] is on record as “unstable”. Further, the “Solubility in organic liquids (in words)” value in series [5] is on record as “slightly soluble in an organic liquid”.
